The text below walks through data of US20230078764A1 (Yumanity Therapeutics, Inc., priority 2019, published 2023).

Where two headings read alike, the source gives them in different places.

For experiment [1], the target named is T1, human SCD5 (Homo sapiens, UniProt Q86SK9).
T1 construct: expressed in transfected cells; host or cells: yeast strain with OLE1 deleted, plasmid-borne human SCD5 (selected in SD-Ura)
T1 sequence (Q86SK9 1-330): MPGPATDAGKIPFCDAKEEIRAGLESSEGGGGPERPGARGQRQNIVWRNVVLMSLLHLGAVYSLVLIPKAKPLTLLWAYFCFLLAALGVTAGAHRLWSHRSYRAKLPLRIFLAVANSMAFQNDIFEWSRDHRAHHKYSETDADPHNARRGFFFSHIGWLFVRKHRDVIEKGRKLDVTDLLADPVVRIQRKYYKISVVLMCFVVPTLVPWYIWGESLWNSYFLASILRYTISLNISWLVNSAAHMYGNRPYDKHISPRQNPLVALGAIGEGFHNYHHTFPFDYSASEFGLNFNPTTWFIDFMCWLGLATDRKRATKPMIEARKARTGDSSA
In words: Growth inhibition of yeast strain expressing human SCD5 as sole desaturase (OLE1 deleted), OD600 readout. It is filed as cell-based.

Experiment [2] has as its target T2, human SCD1 (Homo sapiens, UniProt O00767).
T2 construct: expressed in transfected cells; host or cells: yeast strain with OLE1 deleted, plasmid-borne human SCD1 (selected in SD-Ura)
T2 sequence (O00767 1-359): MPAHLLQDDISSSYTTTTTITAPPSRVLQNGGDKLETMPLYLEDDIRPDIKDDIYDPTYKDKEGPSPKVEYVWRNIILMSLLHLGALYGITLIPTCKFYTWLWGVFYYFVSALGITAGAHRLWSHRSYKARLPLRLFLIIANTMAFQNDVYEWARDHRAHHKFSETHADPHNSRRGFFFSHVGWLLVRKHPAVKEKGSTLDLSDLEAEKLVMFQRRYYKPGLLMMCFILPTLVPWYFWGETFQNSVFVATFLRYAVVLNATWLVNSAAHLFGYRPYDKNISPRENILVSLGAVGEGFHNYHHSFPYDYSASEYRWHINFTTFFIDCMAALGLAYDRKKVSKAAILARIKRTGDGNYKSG
In words: Growth inhibition of yeast strain expressing human SCD1 as sole desaturase (OLE1 deleted), OD600 readout. It counts as cell-based.

Setting [3] is: yeast strain expressing human SCD5 as sole desaturase, growth (OD600) after 40 h at 30° C., read-out: SCD5 IC50.
[4] abbreviates: yeast strain expressing human SCD1 as sole desaturase, growth (OD600) after 40 h at 30° C., read-out: SCD1 IC50.

In general, IC50 refers to the concentration at which inhibition is half-maximal. Consider `CN1N=C(C(=O)Nc2ccc(Cc3cccc(F)c3)cc2)CCC1=O` [Compound 1, N-(4-(3-fluorobenzyl)phenyl)-1-methyl-6-oxo-1,4,5,6-tetrahydropyridazine-3-carboxamide], for which the IC50 in experiment [1] (setting [3]) is 5.16 µM; in experiment [2] (setting [4]), above 45 µM.
For `CN1N=C(C(=O)Nc2ccc(Cc3cccc(Cl)c3)cc2)CCC1=O` [Compound 2, N-(4-(3-chlorobenzyl)phenyl)-1-methyl-6-oxo-1,4,5,6-tetrahydropyridazine-3-carboxamide], in that order: 2.65 µM and above 45 µM.
For `Cn1nc(C(=O)Nc2ccc(Cc3cccc(Cl)c3)cc2)ccc1=O` [Compound 3, N-(4-(3-chlorobenzyl)phenyl)-1-methyl-6-oxo-1,6-dihydropyridazine-3-carboxamide], in that order: 0.45 µM and 0.99 µM.
The matching figures for `Cn1nc(C(=O)Nc2ccc(Cc3cccc(F)c3)cc2)ccc1=O` [Compound 4, N-(4-(3-fluorobenzyl)phenyl)-1-methyl-6-oxo-1,6-dihydropyridazine-3-carboxamide]: 0.58 µM and 1.73 µM.
For the compound `Cn1cc(C(=O)Nc2ccc(Cc3cccc(F)c3)cc2)ccc1=O` [Compound 5, N-(4-(3-fluorobenzyl)phenyl)-1-methyl-6-oxo-1,6-dihydropyridine-3-carboxamide], the IC50 in experiment [1] (setting [3]) was determined as 1.87 µM; in experiment [2] (setting [4]), 3.34 µM.
The matching figures for `CN1N=C(C(=O)Nc2ccc(Cc3cccc(F)c3)cn2)CCC1=O` [Compound 6, N-(5-(3-fluorobenzyl)pyridin-2-yl)-1-methyl-6-oxo-1,4,5,6-tetrahydropyridazine-3-carboxamide]: 1.02 µM and above 45 µM.
As to `CN1N=C(C(=O)Nc2ccc(Cc3cccc(C#N)c3)cn2)CCC1=O` [Compound 8, N-(5-(3-cyanobenzyl)pyridin-2-yl)-1-methyl-6-oxo-1,4,5,6-tetrahydropyridazine-3-carboxamide], the IC50 in experiment [2] (setting [4]) was above 45 µM.
With `CN1N=C(C(=O)Nc2ccc(Cc3ccc(F)c(C#N)c3)cn2)CCC1=O` [Compound 10, N-(5-(3-cyano-4-fluorobenzyl)pyridin-2-yl)-1-methyl-6-oxo-1,4,5,6-tetrahydropyridazine-3-carboxamide], the IC50 in experiment [1] (setting [3]) was 0.5 µM; in experiment [2] (setting [4]), 9.54 µM.
In the case of `CN1N=C(C(=O)Nc2ccc(Cc3ccc(Cl)c(F)c3)cn2)CCC1=O` [Compound 11, N-(5-(4-chloro-3-fluorobenzyl)pyridin-2-yl)-1-methyl-6-oxo-1,4,5,6-tetrahydropyridazine-3-carboxamide], the half-inhibitory concentration (IC50) in experiment [1] (setting [3]) is 0.08 µM; in experiment [2] (setting [4]) it was 2.74 µM.
For `CN1N=C(C(=O)Nc2ccc(Cc3ccccc3)cn2)CCC1=O` [Compound 13, N-(5-benzylpyridin-2-yl)-1-methyl-6-oxo-1,4,5,6-tetrahydropyridazine-3-carboxamide], in experiment [2] (setting [4]), the IC50 is above 45 µM.
Take `CN1N=C(C(=O)Nc2ccc(Cc3cc(C(F)(F)F)ccn3)cn2)CCC1=O` [Compound 14, 1-methyl-6-oxo-N-(5-((4-(trifluoromethyl)pyridin-2-yl)methyl)pyridin-2-yl)-1,4,5,6-tetrahydropyridazine-3-carboxamide]: the IC50 came to 3.74 µM in experiment [1] (setting [3]) and 17.3 µM in experiment [2] (setting [4]).
For `COc1cc(Cl)cc(Cc2ccc(NC(=O)c3ccc(=O)n(C)c3)nc2)c1` [Compound 50, N-(5-(3-chloro-5-methoxybenzyl)pyridin-2-yl)-1-methyl-6-oxo-1,6-dihydropyridine-3-carboxamide], the IC50 came to 0.02 µM in experiment [1] (SCD5 IC50) and 1.53 µM in experiment [2] (SCD1 IC50).
Regarding `CN1N=C(C(=O)Nc2ccc(Cc3cc(Cl)cc(C#N)c3)cn2)CCC1=O` [Compound 51, N-(5-(3-chloro-5-cyanobenzyl)pyridin-2-yl)-1-methyl-6-oxo-1,4,5,6-tetrahydropyridazine-3-carboxamide], the results for the IC50 in experiment [1] (setting [3]) and in experiment [2] (setting [4]) were 1.56 µM and above 45 µM, respectively.
`COc1cc(F)cc(Cc2ccc(NC(=O)c3ccc(=O)n(C)c3)nc2)c1` [Compound 52, N-(5-(3-fluoro-5-methoxybenzyl)pyridin-2-yl)-1-methyl-6-oxo-1,6-dihydropyridine-3-carboxamide]: the IC50 amounted to 0.13 µM in experiment [1] (SCD5 IC50) and 8.21 µM in experiment [2] (SCD1 IC50).
With `Cn1cc(C(=O)Nc2ccc(Cc3ccc(F)cc3)cn2)ccc1=O` [Compound 53, N-(5-(4-fluorobenzyl)pyridin-2-yl)-1-methyl-6-oxo-1,6-dihydropyridine-3-carboxamide], the IC50 was found to be 0.01 µM in experiment [1] (SCD5 IC50) and 0.28 µM in experiment [2] (SCD1 IC50).
Regarding `COc1cc(Cc2ccc(NC(=O)c3ccc(=O)n(C)c3)nc2)ccc1F` [Compound 54, N-(5-(4-fluoro-3-methoxybenzyl)pyridin-2-yl)-1-methyl-6-oxo-1,6-dihydropyridine-3-carboxamide], the figures for the IC50 in experiment [1] (SCD5 IC50) and in experiment [2] (SCD1 IC50) were 0.58 µM and 12 µM, respectively.
As for `N#Cc1ccc(C(=O)Nc2ccc(Cc3cccc(F)c3)cn2)nc1` [Compound 135, 5-cyano-N-(5-(3-fluorobenzyl)pyridin-2-yl)picolinamide], the IC50 in experiment [2] (setting [4]) came out at 14.1 µM.
Still for that read-out and setting: under `N#Cc1ccc(C(=O)Nc2ccc(Cc3cccc(F)c3)cn2)nc1` [Compound 142, 5-cyano-N-(5-(3-fluorobenzyl)pyridin-2-yl)picolinamide] stands above 45 µM.
For the compound `Cc1nnc2ccc(C(=O)Nc3ccc(Cc4cccc(F)c4)cn3)cn12` [Compound 152, N-(5-(3-fluorobenzyl)pyridin-2-yl)-3-methyl-[1,2,4]triazolo[4,3-a]pyridine-6-carboxamide], in experiment [2] (setting [4]), the IC50 is above 45 µM.
Regarding `Cn1cc(C(=O)Nc2ccc(Oc3cccc(F)c3)cn2)ccc1=O` [Compound 160, N-[5-(3-fluorophenoxy)pyridin-2-yl]-1-methyl-6-oxo-1,6-dihydropyridine-3-carboxamide], the IC50 in experiment [2] (setting [4]) is above 45 µM.
The same measure, in the same setting: as for `Cn1nc(C(=O)Nc2ccc(Oc3cccc(F)c3)cn2)ccc1=O` [Compound 162, N-[5-(3-fluorophenoxy)pyridin-2-yl]-1-methyl-6-oxo-1,6-dihydropyridazine-3-carboxamide], the figure is above 45 µM.
Regarding `CCn1cc(C(=O)Nc2ccc(Oc3cccc(F)c3)cn2)ccc1=O` [Compound 164, 1-ethyl-N-[5-(3-fluorophenoxy)pyridin-2-yl]-6-oxo-1,6-dihydropyridine-3-carboxamide], the IC50 in experiment [2] (setting [4]) is above 45 µM.
On the same count and under the same terms, as for `COc1cccc(Cc2ccc(NC(=O)C3=NN(C)C(=O)CC3)nn2)c1` [Compound 182, N-(6-(3-methoxybenzyl)pyridazin-3-yl)-1-methyl-6-oxo-1,4,5,6-tetrahydropyridazine-3-carboxamide], the figure is above 45 µM.
Still for that read-out and setting: under `CN1N=C(C(=O)Nc2ccc(Cc3cccc(F)c3)nn2)CCC1=O` [Compound 193, N-(6-(3-fluorobenzyl)pyridazin-3-yl)-1-methyl-6-oxo-1,4,5,6-tetrahydropyridazine-3-carboxamide] stands above 45 µM; under `Cn1nc(C(=O)Nc2cnn(Cc3cccc(Cl)c3)c2)ccc1=O` [Compound 215, N-(1-(3-chlorobenzyl)-1H-pyrazol-4-yl)-1-methyl-6-oxo-1,6-dihydropyridazine-3-carboxamide], 1.28 µM.
Regarding `CN1N=C(C(=O)Nc2ccc(Cc3ccccc3)nn2)CCC1=O` [Compound 253], the IC50 in experiment [1] (setting [3]) came out at 4.75 µM.
As for `CN1N=C(c2nc3cc(Cc4cccc(Cl)c4)cnc3[nH]2)CCC1=O` [Compound 255], the IC50 in experiment [1] (setting [3]) was 4.74 µM.
In the case of `Cn1cc(C(=O)Nc2ccc(COc3cccc(Cl)c3)cn2)ccc1=O` [Compound 263], the IC50 in experiment [2] (setting [4]) was above 45 µM.
Turning to `CN1N=C(C(=O)Nc2ccc(/C=C/c3cccc(Cl)c3)nn2)CCC1=O` [Compound 418], the IC50 in experiment [1] (setting [3]) was above 45 µM.
As for `CN1N=C(C(=O)Nc2ccc(Cc3ccc(F)cc3)cn2)CCC1=O` [Example 17, N-(5-(4-fluorobenzyl)pyridin-2-yl)-1-methyl-6-oxo-1,4,5,6-tetrahydropyridazine-3-carboxamide], the IC50 in experiment [2] (setting [4]) is above 45 µM.
On the same count and under the same terms, as for `CN1N=C(C(=O)Nc2ccc(Cc3ccc4c(c3)COC4)cn2)CCC1=O` [Example 19, N-(5-((1,3-dihydroisobenzofuran-5-yl)methyl)pyridin-2-yl)-1-methyl-6-oxo-1,4,5,6-tetrahydropyridazine-3-carboxamide], the figure is above 45 µM.
Same read-out and setting: as for `CN1N=C(C(=O)Nc2ccc(Cc3cc(F)cc(F)c3)cn2)CCC1=O` [Example 22, N-(5-(3,5-difluorobenzyl)pyridin-2-yl)-1-methyl-6-oxo-1,4,5,6-tetrahydropyridazine-3-carboxamide], the figure is above 45 µM; as for `CN1N=C(C(=O)Nc2ccc(Cc3cc(F)cc(C#N)c3)cn2)CCC1=O` [Example 26, N-(5-(3-cyano-5-fluorobenzyl)pyridin-2-yl)-1-methyl-6-oxo-1,4,5,6-tetrahydropyridazine-3-carboxamide], above 45 µM.
